According to US10975142B2, “Endotrophin neutralization and use thereof” (THE BOARD OF REGENTS OF THE UNIVERSITY OF TEXAS SYSTEM, priority 2013, dated 2021):

B1: 10B6: rat anti-mouse endotrophin monoclonal antibody; light chain variable SEQ ID NO: 2, heavy chain variable SEQ ID NO: 4 (antibody, V domains shown)
VH: QVQLQQSGPELAKPGSSVKISCKASGYTFTSYEMHWIKQRPGQGLEWIGYIYPESGSTGYNEKFKGKATLTVDKSSPTAYMQLSSLTPDNSAVYFCTRGLRVLGYVMDVWGHGTSVTVSS
VL: DVQLTQSPSFLSASVGDRVTINCKASQNINKYLNWYQQKLGEAPKRLIYNTNNLQTGIPSRFSGSASGTDYTLTISSLHPEDFATYFCLQHSSLYTFGAGTKLELK

Tests used:
PyMT mice [1] = experiment: TZD and cisplatin treatment of FP635/PyMT (PyMT) mice; format: in vivo, mouse
Method: FIGS. 19A-19F. TZD augments cisplatin sensitivity and correlates with the COL6A3 levels. FIG. 19A. FP635/PyMT mice were given TZD containing chow (supply approx. 20 mg/kg/day, rosiglitazone) or normal-diet (ND) starting at 8-weeks of age, and cisplatin (1 mg/kg) or PBS treatment was initiated at 10 weeks of age (ip., 3 times/week) over the course of tumor progression. Tumor burden was monitored with a fluorescence scanner (IVIS, Caliper life science). Quantified results are represented as mean±SD (n=8-9/group). *p=0.04, ND/CIS vs. TZD/CIS by unpaired student t-test. Metastatic burden was determined by fluorescence signals in lung tissues. FIG. 19B. Primary cancer cells isolated from tumors in PyMT mice were implanted into WT mice. TZD were given 5 days prior to cisplatin treatment (1 mg/kg, every 5 days). Tumor volumes were determined by caliper measurement and represented as mean±SD (n=5-6/group). *p<0.05 and **p<0.001, ND/CIS vs. TZD/CIS by 2-way ANOVA. FIGS. 19C-19D. Total RNA was extracted from tumor tissues in each group. mRNA levels for collagens such as COL1A1, COL6A1, -A2, and -A3 (FIG. 19C), and EMT genes such as E-cadherin, N-cadherin, Vimentin, Snail, Slug, Twist1 and Twist2 (FIG. 19D) were determined by qRT-PCR and normalized with 36B4. Quantitative results represent mean±SD (n=7/group). *p<0.05, **p<0.01, ***p<0.001 ND/PBS vs. ND/CIS; ^###p<0.001 ND/CIS vs. TZD/CIS by 2-way ANOVA. FIGS. 19E-19F. EMT indices were determined by immunostaining with E-Cadherin (FIG. 19E) and Vimentin (FIG. 19F). Cytokeratin (epithelial cells) and DAPI (nucleus) were co-stained. Staining positive area was quantified (multiple images, n=5/group). **p=0.014 (E) and *p=0.015 (F), ND/CIS vs. TZD/CIS by unpaired student t-test. Scale bars: 100 μm.
FIGS. 23A-23B: TZD confers beneficial effects on cisplatin treatment in mammary tumors. Met-1 cancer cells (0.5×10^6 cells/mouse) were implanted into wild-type mice and TZD (20 mg/kg) was given by diet and cisplatin (1 mg/kg) was intraperitoneally (ip.) injected every 5 days from 30 days post implantation (n=8/group). ***p<0.001 vs. ND by 2-way ANOVA. Tumor tissues from PyMT mice given TZD or normal diet (ND) diet were histologically assessed. […] Data represent mean±SD (n=5/group). **p=0.0042 ND vs. TZD by unpaired student t-test. Scales: 50 μm. […] Data represent mean±SD (n=5/group). *p=0.002 ND vs. TZD by unpaired student t-test. Arrows indicate staining positive cells. Scales: 25 μm.
Cisplatin (sigma, 479306) was diluted to 1 mg/ml in PBS and was sonicated briefly before injection. […]
Infrared fluorescence expressing MMTV-PyMT mice (FP635/PyMT) were imaged by IVIS scanner (Caliper lifesciences) and signal intensity was analyzed with Living image v.3.2 (Caliper lifesciences).

PyMT mice [2] = experiment: 10B6 treatment of PyMT mice, tumor growth; format: in vivo; conditions: 10B6 200 μg/mouse i.p. twice weekly, 9 to 13 weeks of age, vs isotype control IgG
Method: FIGS. 8A-8I: 10B6 blocks ETP-mediated stromal expansion in vivo. (FIG. 8A) 10B6 (200 μg/mouse) was i.p. injected twice weekly into PyMT mice from 9 to 13 weeks of age. Tumor growth (mean±SEM; n=4-6 per group) was determined by weekly caliper measurements. *P<0.05, **P<0.01, ***P<0.001 vs. IgG control, 2-way ANOVA. (FIG. 8B) Primary mammary epithelial cancer cells were isolated from 12-week-old FP635/PyMT and FP635/PyMT/ETP mice and implanted into WT recipients with the same volume of Matrigel. For the 10B6 group, 10B6 was added in a Matrigel plug (10 μg/plug) admixed with ETP^+-cancer cells (i.e., ETP^+/10B6). A representative whole-body image was acquired 25 days after implantation using IVIS fluorescence scanner. Artificial color indicates fluorescence signal intensity accounts for tumor volume (AU). Quantitative results are represented as mean±SEM (n=3 per group). *P<0.05, unpaired t test. […] Quantified results in FIGS. 8D-8I are mean±SEM (multiple images, n=3 per group). *P<0.05, **P<0.01, unpaired t test. […]
Tumor onset was monitored twice weekly by palpation. Tumor sizes were measured with a digital caliper twice weekly and the volumes were calculated as […]. […] Metastatic tumor growth was determined by histological analysis with H&E stained lung tissues.

Molecule | EMT in tumor tissues (loss of E-cadherin or increase in vimentin) (PyMT mice [1]; immunostaining) | metallothionein (MT) levels in tumor tissues (PyMT mice [1]; immunostaining) | mRNA levels of COL6A3 in tumor tissues (PyMT mice [1]; qRT-PCR) | mRNA levels for EMT transcription factors (Snail, Slug, Twist1) (PyMT mice [1]; qRT-PCR, tumor tissues) | tumor growth (PyMT mice [2])
N.N.[Cl][Pt][Cl] [cisplatin, cis-diammine-dichloro-platinum] | significant increase | significantly increased | significantly increased | significantly increased | –
B1 | – | – | – | – | significantly attenuated
